# Results as given in patent publication US11384079B2, “6-5 fused rings as C5a inhibitors” (CHEMOCENTRYX, INC., priority 2017, dated 2022).
# Target: T1, C5aR (Homo sapiens, UniProt P21730)
# T1 construct: U937 cells are a monocytic cell line which express C5aR; host or cells: U937 cells (cAMP treated) or isolated neutrophils
# T1 sequence (P21730 1-350): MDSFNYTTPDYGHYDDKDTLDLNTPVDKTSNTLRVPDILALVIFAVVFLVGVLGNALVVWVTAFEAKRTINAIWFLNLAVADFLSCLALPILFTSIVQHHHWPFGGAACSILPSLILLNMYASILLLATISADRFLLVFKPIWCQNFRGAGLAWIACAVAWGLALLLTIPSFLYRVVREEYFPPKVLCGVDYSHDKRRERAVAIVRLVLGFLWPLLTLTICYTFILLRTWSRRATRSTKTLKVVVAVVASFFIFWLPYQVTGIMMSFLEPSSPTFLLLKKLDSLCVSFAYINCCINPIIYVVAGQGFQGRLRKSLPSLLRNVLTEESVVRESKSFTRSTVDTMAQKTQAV
# Assay: chemotaxis assay (C5aR mediated migration)
# Format: cell-based
# Settings: migration of U937 or neutrophil cells toward C5a (0.03 nM), 1.5 hours at 37° C., read-out: Mig IC50
# Method: U937 cells are a monocytic cell line which express C5aR, and are available from ATCC (VA). […] Cells were grown under 5% CO2/95% air, 100% humidity at 37° C. and subcultured twice weekly at 1:6 (cells were cultured at a density range of 1×10^5 to 2×10^6 cells/mL) and harvested at 1×10^6 cells/mL. Prior to assay, cells are treated overnight with 0.5 mM of cyclic AMP (Sigma, Ohio) and washed once prior to use. cAMP treated U937 cells can be used in C5aR ligand binding and functional assays.
# Optionally, human or murine neutrophils can be used to assay for compound activity. Neutrophils may be isolated from fresh human blood using density separation and centrifugation. Briefly, whole blood is incubated with equal parts 3% dextran and allowed to separate for 45 minutes. After separation, the top layer is layered on top of 15 mls of Ficoll (15 mls of Ficoll for every 30 mls of blood suspension) and centrifuged for 30 minutes at 400×g with no brake. The pellet at the bottom of the tube is then isolated and resuspended into PharmLyse RBC Lysis Buffer (BD Biosciences, San Jose, Calif.) after which the sample is again centrifuged for 10 minutes at 400×g with brake. The remaining cell pellet is resuspended as appropriate and consists of isolated neutrophils.
# Optionally, compounds may be further assayed for their ability to inhibit chemotaxis in cells. Chemotaxis assays are performed using 5 μm pore polycarbonate, polyvinylpyrrolidone-coated filters in 96-well chemotaxis chambers (Neuroprobe; Gaithersburg, Md.) using chemotaxis buffer (Hank's balanced salt solution (HBSS) and 1% FBS). C5aR ligands (i.e., C5a, R&D Systems; Minneapolis, Minn.) are use to evaluate compound mediated inhibition of C5aR mediated migration. Other chemokines (i.e., SDF-1α; R&D Systems; Minneapolis, Minn.) are used as specificity controls. […] The chambers are incubated 1.5 hours at 37° C., and the number of cells in the lower chamber quantified either by direct cell counts in five high powered fields per well or by the CyQuant assay (Molecular Probes), a fluorescent dye method that measures nucleic acid content and microscopic observation.
row,IC50 [nM],Structure (SMILES)
1,< 5,CCc1cccc(CC)c1-n1nc2c(c1-c1ccc(Cl)c3[nH]ccc13)CN(c1ncc(F)cc1Cl)CC2 [Example 1.159]
2,> 500,Cc1cccc(C)c1-n1nc2c(c1-c1ccc3[nH]ncc3c1)CN(c1ncc(Cl)cc1Cl)CC2 [Example 1.192]
3,5 to 50,CCc1cccc(CC)c1-n1nc2c(c1-c1ccc(F)c3[nH]ccc13)CN(c1cnccn1)CC2 [Example 1.173]
4,< 5,CCc1cccc(CC)c1-n1nc2c(c1-c1ccc(Cl)c3[nH]ccc13)CN(c1ncc(C(F)(F)F)cn1)CC2 [Example 1.161]
5,5 to 50,CCc1cccc(CC)c1-n1nc2c(c1-c1nccc3[nH]ncc13)CN(c1ncc(C(F)(F)F)cn1)CC2 [Example 1.015]
6,< 5,CCc1cccc(CC)c1-n1nc2c(c1-c1c(F)cc(C)c3[nH]ccc13)CN(c1ncc(C(F)(F)F)cc1F)CC2 [Example 1.150]
7,< 5,CCc1cccc(CC)c1-n1nc2c(c1-c1cc(F)c(OC)c3[nH]ccc13)CN(c1ncc(OC(C)C)cn1)CC2 [Example 1.054]
8,< 5,CCc1cccc(CC)c1-n1nc2c(c1-c1c(F)cc(C)c3[nH]ccc13)CN(c1ncc(C(C)C)cc1F)CC2 [Example 1.145]
9,< 5,CCc1cccc(CC)c1-n1nc2c(c1-c1ccc(F)c3[nH]ccc13)CN(c1ncc(C)cn1)CC2 [Example 1.177]
10,50 to 500,CCc1cccc(CC)c1-n1nc2c(c1-c1ccc(Cl)c3[nH]ccc13)CN(c1ncc(C(N)=O)cn1)CC2 [Example 1.064]
11,< 5,Cc1cccc(OCC(C)C)c1-n1nc2c(c1-c1ccc3[nH]ccc3c1)CN(c1ncc(Cl)cc1Cl)CC2 [Example 1.200]
12,50 to 500,Cc1cccc(C)c1-n1nc2c(c1-c1ccc(F)c3[nH]cc(Cl)c13)CN(c1ncc(C(F)(F)F)cc1F)CC2 [Example 1.166]
13,5 to 50,COc1cnc(N2CCc3nn(-c4c(C)cccc4C)c(-c4ccc(C)c5[nH]ccc45)c3C2)nc1 [Example 1.114]
14,5 to 50,COc1c(F)cc(-c2c3c(nn2-c2c(C)cccc2C)CCN(c2ncc(C(F)(F)F)cn2)C3)c2cc[nH]c12 [Example 1.004]
15,< 5,CCc1cccc(CC)c1-n1nc2c(c1-c1ccc(C)c3[nH]ccc13)CN(c1ncc(C(F)(F)F)cc1F)CC2 [Example 1.181]
16,< 5,CCc1cccc(CC)c1-n1nc2c(c1-c1ccc(F)c3[nH]ccc13)CN(c1ncc(C(F)(F)F)cc1F)CC2 [Example 1.188]
17,50 to 500,Cc1cccc(C)c1-n1nc2c(c1-c1cc(Cl)c3[nH]ccc3c1)CN(c1ncc(Cl)cc1Cl)CC2 [Example 1.191]
18,< 5,CCc1cccc(CC)c1-n1nc2c(c1-c1c(F)cc(CO)c3[nH]ccc13)CN(c1ncc(C(C)C)cc1F)CC2 [Example 1.094]
19,5 to 50,Cc1cccc(C)c1-n1nc2c(c1-c1ccc3[nH]ccc3c1)CN(c1ncc(Cl)cc1Cl)CC2 [Example 1.197]
20,< 5,CCc1cccc(CC)c1-n1nc2c(c1-c1ccc(F)c3[nH]ccc13)CN(c1ncc(C3CC3)cc1F)CC2 [Example 1.175]
21,< 5,Cc1cccc(C)c1-n1nc2c(c1-c1c(F)cc(Cl)c3[nH]ccc13)CN(c1ccc(C(C)C)cn1)CC2 [Example 1.106]
22,5 to 50,CCc1cccc(CC)c1-n1nc2c(c1-c1ccc(OC)c3[nH]ccc13)CN(c1ncc(C(F)(F)F)cc1F)CC2 [Example 1.089]
23,5 to 50,CCc1cccc(CC)c1-n1nc2c(c1-c1nccc3[nH]ccc13)CN(c1ncc(C(F)(F)F)cn1)CC2 [Example 1.031]
24,5 to 50,Cc1cnc(N2CCc3nn(-c4c(C)cccc4C)c(-c4ccc(Cl)c5[nH]ccc45)c3C2)nc1 [Example 1.154]
25,> 500,CCc1cccc(CC)c1-n1nc2c(c1-c1ccc3[nH]c(C)nc3c1)CN(c1ncc(C(F)(F)F)cn1)CC2 [Example 1.016]
26,< 5,CCc1cccc(CC)c1-n1nc2c(c1-c1ccc(Cl)c3[nH]ncc13)CN(c1ncc(C3CC3)cn1)CC2 [Example 1.065]
27,5 to 50,CCc1cccc(CC)c1-n1nc2c(c1-c1ccc(OC)c3[nH]ccc13)CN(c1ncc(C(F)(F)F)cn1)CC2 [Example 1.087]

row,IC50 [nM],Structure (SMILES)
1,5 to 50,CCc1cccc(CC)c1-n1nc2c(c1-c1ncc(OC)c3[nH]ccc13)CN(c1ncc(C(F)(F)F)cn1)CC2 [Example 1.013]
2,< 5,CCOc1c(F)cc(-c2c3c(nn2-c2c(CC)cccc2CC)CCN(c2ncc(C(F)(F)F)cn2)C3)c2cc[nH]c12 [Example 1.024]
3,< 5,CCc1cccc(CC)c1-n1nc2c(c1-c1ccc(Cl)c3[nH]ccc13)CN(c1ccc(C(F)(F)F)cn1)CC2 [Example 1.163]
4,5 to 50,CCc1cccc(CC)c1-n1nc2c(c1-c1ccc(Cl)c3[nH]ccc13)CN(c1ncc(Cl)c(OC)n1)CC2 [Example 1.121]
5,50 to 500,COc1cccc(F)c1-n1nc2c(c1-c1cc(F)c(OC)c3[nH]ccc13)CN(c1ncc(C(F)(F)F)cn1)CC2 [Example 1.007]
6,< 5,CCc1cccc(CC)c1-n1nc2c(c1-c1c(F)cc(Cl)c3[nH]ccc13)CN(c1ncc(C3CC3)cn1)CC2 [Example 1.070]
7,< 5,CCc1cccc(CC)c1-n1nc2c(c1-c1ccc(Cl)c3[nH]ccc13)CN(c1ncc(C)cn1)CC2 [Example 1.156]
8,< 5,CCc1cccc(CC)c1-n1nc2c(c1-c1ccc(Cl)c3[nH]cc(C)c13)CN(c1ncc(C(F)(F)F)cc1F)CC2 [Example 1.146]
9,< 5,CCc1cccc(CC)c1-n1nc2c(c1-c1ccc3[nH]ccc3c1)CN(C(CC)CC)CC2 [Example 1.212]
10,< 5,CCc1cccc(CC)c1-n1nc2c(c1-c1ccc(Cl)c3[nH]ccc13)CN(c1nccc(OC)n1)CC2 [Example 1.113]
11,< 5,CCc1cccc(CC)c1-n1nc2c(c1-c1c(F)cc(CO)c3[nH]ccc13)CN(c1ncc(C(C)C)cn1)CC2 [Example 1.098]
12,50 to 500,CCc1cccc(CC)c1-n1nc2c(c1-c1cc(F)c(OC)c3[nH]ccc13)C(=O)N(c1ncc(C(F)(F)F)cn1)CC2 [Example 1.033]
13,< 5,CCc1cccc(CC)c1-n1nc2c(c1-c1ccc3[nH]ccc3c1)CN(Cc1cc(F)ccc1Cl)CC2 [Example 1.230]
14,5 to 50,COc1cnc(N2CCc3nn(-c4c(C)cccc4C)c(-c4c(F)cc(Cl)c5[nH]ccc45)c3C2)nc1 [Example 1.111]
15,< 5,CCc1cccc(CC)c1-n1nc2c(c1-c1cc(F)c(OC)c3[nH]ccc13)CN(c1ncc(C3CC3)cn1)CC2 [Example 1.050]
16,50 to 500,CCc1cccc(CC)c1-n1nc2c(c1-c1ccc(Cl)c3[nH]ccc13)CN(c1nccc(N)n1)CC2 [Example 1.129]
17,5 to 50,Cc1cccc(C)c1-n1nc2c(c1-c1c(F)cc(Cl)c3[nH]ccc13)CN(c1ncc(C(C)C)cc1F)CC2 [Example 1.105]
18,< 5,CCc1cccc(CC)c1-n1nc2c(c1-c1ccc(F)c3[nH]ccc13)CN(c1ncc(Cl)cn1)CC2 [Example 1.184]
19,5 to 50,FC(F)(F)c1ccccc1CN1CCc2nn(-c3c(Cl)cccc3Cl)c(-c3ccc4[nH]ccc4c3)c2C1 [Example 1.219]
20,> 500,CCc1cccc(CC)c1-n1nc2c(c1-c1ccc3[nH]ccc3n1)CN(c1ncc(C(F)(F)F)cn1)CC2 [Example 1.010]
21,50 to 500,Cc1cccc(OCC(C)C)c1-n1nc2c(c1-c1ccnc3[nH]ccc13)CN(c1ncc(C(F)(F)F)cc1F)CC2 [Example 1.217]
22,< 5,CCc1cccc(CC)c1-n1nc2c(c1-c1cc(F)c(OC)c3[nH]cnc13)CN(c1ncc(C(F)(F)F)cn1)CC2 [Example 1.036]
23,5 to 50,Cc1cccc(C)c1-n1nc2c(c1-c1ccc3[nH]ccc3c1)CN(Cc1ccccc1C(F)(F)F)CC2 [Example 1.221]
24,5 to 50,Cc1cccc(C)c1-n1nc2c(c1-c1ccc(C)c3[nH]ccc13)CN(c1ncc(C(F)(F)F)cc1F)CC2 [Example 1.108]
25,< 5,CCc1cccc(CC)c1-n1nc2c(c1-c1ncc(C)c3[nH]ccc13)CN(c1ncc(C(F)(F)F)cn1)CC2 [Example 1.020]
26,50 to 500,COc1cccc(C)c1-n1nc2c(c1-c1ccc3[nH]ccc3c1)CN(C(=O)OC(C)(C)C)CC2 [Example 1.134]
27,< 5,CCc1cccc(CC)c1-n1nc2c(c1-c1ccc(Cl)c3[nH]ccc13)CN(c1ncc(C(F)(F)F)cc1F)CC2 [Example 1.185]
